Test results published in publication doi:10.1101/2024.12.23.630085, “Accurate sequence-to-affinity models for SH2 domains from multi-round peptide binding assays coupled with free-energy regression” (bioRxiv, 2025).
Non-standard residues stand in square brackets, D forms with d. Residues, ends and D or L forms follow the SMILES beside them. pY = N[C@@H](Cc1ccc(OP(=O)(O)O)cc1)C(=O)O

How the values were obtained:
Assay type in all cases: binding
[1] = target: T1, c-Src SH2 domain (Homo sapiens, UniProt P12931); assay: Competitive fluorescence polarization, c-Src SH2; conditions: competition fluorescence polarization, probe FITC-Ahx-GDG-pY-EEISPLLL-NH2 30 nM, mean
T1 construct: the SH2 domains of two closely-related kinases from the Src subfamily (c-Src and Fyn); made in house
From the text: (§1) All peptides containing phosphorylated tyrosine, both fluorescently labelled and non-labelled, were produced by SynPeptide (China).

[2] = target: T2, Grb2 SH2 domain (Homo sapiens, UniProt P62993); assay: Competitive fluorescence polarization, Grb2 SH2; conditions: Table S3 unpaired validation; competition fluorescence polarization; probe FITC-Ahx-FDDPS(pY)VNVQN 30 nM; [SH2] 123 nM; mean
T2 construct: one distantly-related SH2 domain from the adapter protein Grb2; His6-SUMO (N); mCh (only in the data set names 'Grb2mCh'; possibly an mCherry fusion, never explained); made in house
T2 sequence (P62993 60-152 limits assumed): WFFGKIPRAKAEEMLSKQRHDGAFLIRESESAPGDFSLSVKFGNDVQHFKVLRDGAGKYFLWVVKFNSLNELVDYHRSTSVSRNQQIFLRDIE
From the text: as §1

[3] = target: T3, Fyn SH2 domain (Homo sapiens, UniProt P06241); assay: Competitive fluorescence polarization, Fyn SH2; conditions: Table S3 unpaired validation; competition fluorescence polarization; probe FITC-Ahx-GDG-pY-EEISPLLL-NH2 0.4 nM; [SH2] 4.12 nM; mean
T3 construct: The human SH2 domains from Fyn (142–248), Lyn (121–228); His6-SUMO (N, cleaved yes); made in house; host or cells: E. coli C43(DE3) with BirA helper plasmid
T3 sequence (P06241 142-248): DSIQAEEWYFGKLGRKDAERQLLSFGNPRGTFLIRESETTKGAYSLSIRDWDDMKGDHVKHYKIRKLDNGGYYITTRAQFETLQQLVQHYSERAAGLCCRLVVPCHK
Method: Next, the protein was eluted with elution buffer (50 mM Tris, pH 7.5, 50 mM NaCl, 250 mM imidazole, 10% glycerol) directly onto a 5 mL HiTrap Q HP anion exchange column (Cytiva). […] The biotinylated SH2 domain was then collected in a flowthrough after running the cleavage reaction over a HisTrap HP column.

[4] = Table S5 single-amino-acid substitution pairs, [SH2] 240 nM

| Compound | Kd [1, 4] | Kd [2] | further results |
| --- | --- | --- | --- |
| CC[C@H](C)[C@H](NC(=O)[C@@H]1CCCN1C(=O)[C@H](CCC(N)=O)NC(C)=O)C(=O)N[C@@H](Cc1ccccc1)C(=O)N[C@@H](CCC(=O)O)C(=O)NCC(=O)N[C@@H](Cc1ccc(OP(=O)(O)O)cc1)C(=O)N[C@@H](C)C(=O)N[C@@H](CC(C)C)C(=O)N1CCC[C@H]1C(=O)N[C@@H](Cc1c[nH]cn1)C(=O)N[C@@H](C)C(=O)NCC(N)=O [ACTA1 pY171] (Ac-QPIFEG[pY]ALPHAG-NH2) | 4670 nM |  |  |
| CC(=O)N[C@@H](CCC(N)=O)C(=O)N[C@@H](CO)C(=O)N[C@@H](CC(C)C)C(=O)N[C@@H](CCC(=O)O)C(=O)N[C@@H](CCCCN)C(=O)N[C@@H](CO)C(=O)N[C@@H](Cc1ccc(OP(=O)(O)O)cc1)C(=O)N[C@@H](CCC(=O)O)C(=O)N[C@@H](CC(C)C)C(=O)N[C@@H](CC(C)C)C(=O)N[C@@H](CC(=O)O)C(=O)NCC(=O)NCC(N)=O [ACTB pY240 P243L] (Ac-QSLEKS[pY]ELLDGG-NH2) | 6090 nM |  |  |
| CC(=O)N[C@@H](CCC(N)=O)C(=O)N[C@@H](CO)C(=O)N[C@@H](CC(C)C)C(=O)N[C@@H](CCC(=O)O)C(=O)N[C@@H](CCCCN)C(=O)N[C@@H](CO)C(=O)N[C@@H](Cc1ccc(OP(=O)(O)O)cc1)C(=O)N[C@@H](CCC(=O)O)C(=O)N[C@@H](CC(C)C)C(=O)N1CCC[C@H]1C(=O)N[C@@H](CC(=O)O)C(=O)NCC(=O)NCC(N)=O [ACTB pY240] (Ac-QSLEKS[pY]ELPDGG-NH2) | 9040 nM |  |  |
| CC[C@H](C)[C@H](NC(=O)CNC(=O)[C@H](CCC(=O)O)NC(=O)[C@@H](NC(=O)[C@H](CCC(N)=O)NC(C)=O)C(C)C)C(=O)N[C@@H](CO)C(=O)N[C@@H](Cc1ccc(OP(=O)(O)O)cc1)C(=O)N[C@@H](CC(=O)O)C(=O)N[C@@H](Cc1ccccc1)C(=O)N[C@H](C(=O)N1CCC[C@H]1C(=O)N[C@H](C(=O)NCC(N)=O)[C@@H](C)O)[C@@H](C)CC [CBS pY308 G307S] (Ac-QVEGIS[pY]DFIPTG-NH2) | 4280 nM |  |  |
| CC[C@H](C)[C@H](NC(=O)CNC(=O)[C@H](CCC(=O)O)NC(=O)[C@@H](NC(=O)[C@H](CCC(N)=O)NC(C)=O)C(C)C)C(=O)NCC(=O)N[C@@H](Cc1ccc(OP(=O)(O)O)cc1)C(=O)N[C@@H](CC(=O)O)C(=O)N[C@@H](Cc1ccccc1)C(=O)N[C@H](C(=O)N1CCC[C@H]1C(=O)N[C@H](C(=O)NCC(N)=O)[C@@H](C)O)[C@@H](C)CC [CBS pY308] (Ac-QVEGIG[pY]DFIPTG-NH2) | 2730 nM |  |  |
| CC[C@H](C)[C@H](NC(=O)[C@H](CC(C)C)NC(=O)[C@H](CO)NC(=O)[C@H](Cc1ccc(OP(=O)(O)O)cc1)NC(=O)[C@H](CCCNC(=N)N)NC(=O)[C@H](CCCNC(=N)N)NC(=O)[C@H](CCC(N)=O)NC(=O)[C@H](CC(=O)O)NC(=O)[C@H](CO)NC(=O)[C@H](CCC(N)=O)NC(C)=O)C(=O)N[C@@H](CC(=O)O)C(=O)N[C@@H](CCCNC(=N)N)C(=O)NCC(N)=O [CLIP2 pY972] (Ac-QSDQRR[pY]SLIDRG-NH2) | 3980 nM |  |  |
| Ac-QLHVHP-pY-EKVEDG-NH2 [Syn-F-1 (synthetic)] |  |  | Kd [3]: 30.2 nM |
| Ac-QMEKHV-pY-ESVTQG-NH2 [Syn-F-2 (synthetic)] |  |  | Kd [3]: 18.3 nM |

Further lines, with some results ahead:

| Kd [1, 4] | Kd [2] | Compound | further results |
| --- | --- | --- | --- |
|  | 3.99 nM | Ac-QHNIHS-pY-INIPPG-NH2 [Syn-G2-2 (synthetic)] |  |
|  | 2250 nM | Ac-QHRLNN-pY-ENNRLG-NH2 [Syn-G2-6 (synthetic)] |  |
|  | 3240 nM | Ac-QIEVGT-pY-QNPHNG-NH2 [Syn-G2-7 (synthetic)] |  |
|  | 31.8 nM | Ac-QKEAHH-pY-VNWRTG-NH2 [Syn-G2-1 (synthetic)] | Kd ([1]; Table S3 unpaired validation, [SH2] 123-126 nM): 9660 nM |
|  | 487 nM | Ac-QLGHQR-pY-HNITPG-NH2 [Syn-G2-5 (synthetic)] |  |
